Reference: ChEMBL document CHEMBL3991601, “The target landscape of clinical kinase drugs” (Science, 2017)
Calls of active or inactive are those of the source. For most assays here, no stated cut-off is given here; in the data, actives have a measured Kd and inactives only a lower limit.

Legend:
[1] = biological target: T1, Acyl-CoA dehydrogenase family member 11 (Homo sapiens, UniProt Q709F0)
T1 sequence (Q709F0 whole entry): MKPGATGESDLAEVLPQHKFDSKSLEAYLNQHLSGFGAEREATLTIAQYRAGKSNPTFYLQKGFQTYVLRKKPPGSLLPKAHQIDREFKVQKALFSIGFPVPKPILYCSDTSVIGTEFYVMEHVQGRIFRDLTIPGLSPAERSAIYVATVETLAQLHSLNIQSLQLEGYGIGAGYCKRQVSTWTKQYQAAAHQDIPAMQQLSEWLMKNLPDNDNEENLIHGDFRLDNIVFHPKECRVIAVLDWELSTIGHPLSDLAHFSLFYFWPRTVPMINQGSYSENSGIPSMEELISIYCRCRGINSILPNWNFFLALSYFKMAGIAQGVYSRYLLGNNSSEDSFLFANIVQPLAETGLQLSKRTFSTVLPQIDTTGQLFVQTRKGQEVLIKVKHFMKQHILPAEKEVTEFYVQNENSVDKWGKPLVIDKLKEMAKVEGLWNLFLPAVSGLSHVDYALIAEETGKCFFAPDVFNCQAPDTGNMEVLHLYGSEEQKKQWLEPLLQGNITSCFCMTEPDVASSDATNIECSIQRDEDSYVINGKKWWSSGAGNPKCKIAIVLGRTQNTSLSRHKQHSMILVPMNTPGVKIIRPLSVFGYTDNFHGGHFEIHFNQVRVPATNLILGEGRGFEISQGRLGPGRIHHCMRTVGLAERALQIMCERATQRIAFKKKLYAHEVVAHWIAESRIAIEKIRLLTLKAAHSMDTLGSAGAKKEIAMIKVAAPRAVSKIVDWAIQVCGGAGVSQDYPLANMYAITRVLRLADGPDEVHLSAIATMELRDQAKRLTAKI

[2] = biological target: Cyclin-dependent kinase 13 (Homo sapiens, UniProt Q14004)
Sequence of Cyclin-dependent kinase 13 (Q14004 whole entry): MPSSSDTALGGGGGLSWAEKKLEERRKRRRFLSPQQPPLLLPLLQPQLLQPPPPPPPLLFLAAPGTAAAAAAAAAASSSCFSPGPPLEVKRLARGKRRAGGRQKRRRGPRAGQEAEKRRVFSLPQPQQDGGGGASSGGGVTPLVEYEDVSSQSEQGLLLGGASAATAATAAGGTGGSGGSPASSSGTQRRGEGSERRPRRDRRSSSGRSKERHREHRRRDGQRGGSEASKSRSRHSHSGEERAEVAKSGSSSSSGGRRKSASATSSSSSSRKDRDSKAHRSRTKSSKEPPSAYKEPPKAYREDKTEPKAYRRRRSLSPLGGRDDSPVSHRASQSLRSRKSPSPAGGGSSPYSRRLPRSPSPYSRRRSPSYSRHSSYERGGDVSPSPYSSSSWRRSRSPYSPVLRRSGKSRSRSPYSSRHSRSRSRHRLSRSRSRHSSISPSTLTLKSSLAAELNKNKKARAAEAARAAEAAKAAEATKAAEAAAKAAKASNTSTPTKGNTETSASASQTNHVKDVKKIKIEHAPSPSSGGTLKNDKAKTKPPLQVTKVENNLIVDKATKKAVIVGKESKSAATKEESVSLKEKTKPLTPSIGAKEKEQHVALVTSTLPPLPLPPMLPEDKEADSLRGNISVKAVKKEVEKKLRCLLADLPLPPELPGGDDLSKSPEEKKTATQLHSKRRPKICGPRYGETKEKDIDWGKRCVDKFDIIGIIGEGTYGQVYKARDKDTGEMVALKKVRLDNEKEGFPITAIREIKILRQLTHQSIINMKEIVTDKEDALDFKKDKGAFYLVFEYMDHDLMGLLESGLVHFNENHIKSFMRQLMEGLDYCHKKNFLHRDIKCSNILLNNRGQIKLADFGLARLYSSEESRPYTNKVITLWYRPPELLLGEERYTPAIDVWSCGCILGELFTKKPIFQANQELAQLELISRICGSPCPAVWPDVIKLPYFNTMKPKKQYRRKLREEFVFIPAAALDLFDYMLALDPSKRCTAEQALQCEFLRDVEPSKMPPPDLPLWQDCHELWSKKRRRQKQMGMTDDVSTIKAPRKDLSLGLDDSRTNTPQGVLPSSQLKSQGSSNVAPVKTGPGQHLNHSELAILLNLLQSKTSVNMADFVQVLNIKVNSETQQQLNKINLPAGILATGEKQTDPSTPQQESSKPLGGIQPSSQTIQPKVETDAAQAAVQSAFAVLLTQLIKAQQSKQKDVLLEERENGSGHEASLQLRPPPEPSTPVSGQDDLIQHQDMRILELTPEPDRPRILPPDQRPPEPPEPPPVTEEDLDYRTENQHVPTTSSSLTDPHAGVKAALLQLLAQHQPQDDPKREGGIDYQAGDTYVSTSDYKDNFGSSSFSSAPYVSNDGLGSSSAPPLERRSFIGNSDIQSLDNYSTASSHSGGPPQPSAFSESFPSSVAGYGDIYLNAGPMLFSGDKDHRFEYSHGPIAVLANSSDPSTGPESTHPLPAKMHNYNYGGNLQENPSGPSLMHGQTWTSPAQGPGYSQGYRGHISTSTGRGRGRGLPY

[3] = biological target: Ephrin type-A receptor 4 (Homo sapiens, UniProt P54764)
Sequence of Ephrin type-A receptor 4 (P54764 whole entry): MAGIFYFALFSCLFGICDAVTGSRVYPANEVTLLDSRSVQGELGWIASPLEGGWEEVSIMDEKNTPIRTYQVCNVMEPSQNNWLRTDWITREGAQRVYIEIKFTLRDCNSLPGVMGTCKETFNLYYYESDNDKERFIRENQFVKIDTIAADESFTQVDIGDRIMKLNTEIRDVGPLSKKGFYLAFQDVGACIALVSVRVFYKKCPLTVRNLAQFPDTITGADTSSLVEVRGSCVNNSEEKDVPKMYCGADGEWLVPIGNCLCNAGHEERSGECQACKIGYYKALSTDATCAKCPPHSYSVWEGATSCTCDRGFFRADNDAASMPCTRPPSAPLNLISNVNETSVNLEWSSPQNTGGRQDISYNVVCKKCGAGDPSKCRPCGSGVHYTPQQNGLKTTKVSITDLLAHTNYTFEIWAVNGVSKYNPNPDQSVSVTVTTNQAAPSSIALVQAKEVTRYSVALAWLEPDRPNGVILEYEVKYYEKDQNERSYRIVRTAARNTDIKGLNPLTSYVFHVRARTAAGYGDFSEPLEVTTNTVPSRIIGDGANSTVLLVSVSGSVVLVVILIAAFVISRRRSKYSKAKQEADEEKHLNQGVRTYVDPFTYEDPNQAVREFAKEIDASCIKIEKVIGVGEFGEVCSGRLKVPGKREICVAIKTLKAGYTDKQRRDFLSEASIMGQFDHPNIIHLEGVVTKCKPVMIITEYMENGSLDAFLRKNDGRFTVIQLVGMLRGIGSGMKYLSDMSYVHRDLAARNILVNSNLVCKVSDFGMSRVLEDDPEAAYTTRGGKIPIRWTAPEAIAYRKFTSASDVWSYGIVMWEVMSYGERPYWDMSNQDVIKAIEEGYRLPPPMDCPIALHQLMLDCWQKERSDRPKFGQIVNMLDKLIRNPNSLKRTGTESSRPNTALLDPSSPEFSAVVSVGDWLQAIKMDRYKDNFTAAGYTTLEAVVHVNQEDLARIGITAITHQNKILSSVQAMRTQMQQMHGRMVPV

[4] = biological target: T2, Inhibitor of nuclear factor kappa-B kinase subunit epsilon (Homo sapiens, UniProt Q14164)
T2 sequence (Q14164 whole entry): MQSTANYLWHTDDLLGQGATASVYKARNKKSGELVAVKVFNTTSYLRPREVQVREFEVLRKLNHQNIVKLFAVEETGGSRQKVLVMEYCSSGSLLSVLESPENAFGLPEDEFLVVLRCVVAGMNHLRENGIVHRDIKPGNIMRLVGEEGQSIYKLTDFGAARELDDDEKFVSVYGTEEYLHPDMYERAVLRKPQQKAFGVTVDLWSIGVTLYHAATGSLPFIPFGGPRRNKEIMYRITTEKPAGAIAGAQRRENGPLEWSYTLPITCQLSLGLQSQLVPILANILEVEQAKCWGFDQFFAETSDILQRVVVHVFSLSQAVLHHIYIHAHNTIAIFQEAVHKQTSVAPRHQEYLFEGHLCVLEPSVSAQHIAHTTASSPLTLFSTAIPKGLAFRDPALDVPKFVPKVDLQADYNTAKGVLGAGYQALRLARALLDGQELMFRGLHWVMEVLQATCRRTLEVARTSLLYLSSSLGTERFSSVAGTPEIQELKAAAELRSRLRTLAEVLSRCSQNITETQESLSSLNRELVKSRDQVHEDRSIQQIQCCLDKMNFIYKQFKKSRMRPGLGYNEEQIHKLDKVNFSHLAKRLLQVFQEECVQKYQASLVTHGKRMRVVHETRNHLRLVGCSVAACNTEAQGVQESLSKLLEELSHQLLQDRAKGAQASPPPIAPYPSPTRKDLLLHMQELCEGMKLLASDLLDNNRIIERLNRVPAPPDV

[5] = biological target: T3, Scaffold protein ILK (Homo sapiens, UniProt Q13418)
T3 sequence (Q13418 whole entry): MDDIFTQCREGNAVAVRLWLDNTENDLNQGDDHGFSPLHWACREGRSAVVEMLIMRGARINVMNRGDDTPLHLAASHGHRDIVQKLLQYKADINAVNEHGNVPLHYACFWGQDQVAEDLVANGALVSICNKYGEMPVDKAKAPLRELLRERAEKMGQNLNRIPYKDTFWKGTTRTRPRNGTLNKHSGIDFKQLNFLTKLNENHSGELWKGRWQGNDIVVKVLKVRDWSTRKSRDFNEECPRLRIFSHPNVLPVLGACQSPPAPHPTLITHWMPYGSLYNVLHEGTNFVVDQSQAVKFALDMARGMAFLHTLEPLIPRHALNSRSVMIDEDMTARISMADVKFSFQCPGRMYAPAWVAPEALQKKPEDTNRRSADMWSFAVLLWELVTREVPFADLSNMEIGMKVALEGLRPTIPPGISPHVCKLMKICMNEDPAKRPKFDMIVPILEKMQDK

[6] = biological target: MAP kinase-activated protein kinase 2 (Homo sapiens, UniProt P49137)
Sequence of MAP kinase-activated protein kinase 2 (P49137 whole entry): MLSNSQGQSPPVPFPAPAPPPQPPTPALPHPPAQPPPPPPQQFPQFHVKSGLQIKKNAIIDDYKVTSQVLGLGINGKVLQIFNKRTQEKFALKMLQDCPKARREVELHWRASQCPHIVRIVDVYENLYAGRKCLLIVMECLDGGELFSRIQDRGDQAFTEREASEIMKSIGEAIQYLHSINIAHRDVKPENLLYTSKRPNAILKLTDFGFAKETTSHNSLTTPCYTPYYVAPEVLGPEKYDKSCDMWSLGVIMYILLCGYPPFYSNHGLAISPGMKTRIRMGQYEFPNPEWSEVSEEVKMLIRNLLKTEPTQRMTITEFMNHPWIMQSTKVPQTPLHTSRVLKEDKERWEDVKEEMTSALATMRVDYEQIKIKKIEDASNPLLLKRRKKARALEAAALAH

[7] = biological target: Protein kinase C delta type (Homo sapiens, UniProt Q05655)
Sequence of Protein kinase C delta type (Q05655 whole entry): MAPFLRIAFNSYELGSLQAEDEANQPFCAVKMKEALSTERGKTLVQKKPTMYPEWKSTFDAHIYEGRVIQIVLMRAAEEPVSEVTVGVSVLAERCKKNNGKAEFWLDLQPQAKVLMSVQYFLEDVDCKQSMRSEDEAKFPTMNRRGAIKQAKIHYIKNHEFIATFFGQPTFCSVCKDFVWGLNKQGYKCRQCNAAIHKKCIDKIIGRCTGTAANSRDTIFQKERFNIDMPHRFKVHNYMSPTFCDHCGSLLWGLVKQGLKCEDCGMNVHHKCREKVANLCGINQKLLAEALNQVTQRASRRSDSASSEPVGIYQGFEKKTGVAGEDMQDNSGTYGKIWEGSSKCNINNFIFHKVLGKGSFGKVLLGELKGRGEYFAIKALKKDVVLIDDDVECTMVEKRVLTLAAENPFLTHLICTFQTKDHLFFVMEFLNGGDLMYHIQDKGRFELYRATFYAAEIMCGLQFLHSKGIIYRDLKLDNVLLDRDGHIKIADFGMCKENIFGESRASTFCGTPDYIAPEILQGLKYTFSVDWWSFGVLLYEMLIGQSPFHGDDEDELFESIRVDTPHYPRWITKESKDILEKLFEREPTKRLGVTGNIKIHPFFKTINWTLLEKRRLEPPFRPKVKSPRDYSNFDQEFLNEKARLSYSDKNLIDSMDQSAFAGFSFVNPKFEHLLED

[8] = biological target: Receptor-interacting serine/threonine-protein kinase 2 (Homo sapiens, UniProt O43353)
Sequence of Receptor-interacting serine/threonine-protein kinase 2 (O43353 whole entry): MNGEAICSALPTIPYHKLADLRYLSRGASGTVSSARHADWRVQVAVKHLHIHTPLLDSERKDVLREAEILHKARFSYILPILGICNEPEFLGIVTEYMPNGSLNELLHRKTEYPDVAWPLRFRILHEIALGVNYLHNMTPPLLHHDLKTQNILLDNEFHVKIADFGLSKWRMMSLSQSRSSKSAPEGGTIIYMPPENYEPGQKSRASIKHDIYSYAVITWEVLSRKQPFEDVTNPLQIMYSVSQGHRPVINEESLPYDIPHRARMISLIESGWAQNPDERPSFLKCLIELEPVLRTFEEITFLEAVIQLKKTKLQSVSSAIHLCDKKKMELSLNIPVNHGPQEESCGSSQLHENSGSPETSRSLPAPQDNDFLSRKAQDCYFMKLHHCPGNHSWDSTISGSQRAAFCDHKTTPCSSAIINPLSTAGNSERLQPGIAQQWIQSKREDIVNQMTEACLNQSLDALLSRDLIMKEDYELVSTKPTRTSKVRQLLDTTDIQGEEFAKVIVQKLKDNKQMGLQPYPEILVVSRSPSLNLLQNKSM

[9] = biological target: T4, ADP/ATP translocase 3 (Homo sapiens, UniProt P12236)
T4 sequence (P12236 whole entry): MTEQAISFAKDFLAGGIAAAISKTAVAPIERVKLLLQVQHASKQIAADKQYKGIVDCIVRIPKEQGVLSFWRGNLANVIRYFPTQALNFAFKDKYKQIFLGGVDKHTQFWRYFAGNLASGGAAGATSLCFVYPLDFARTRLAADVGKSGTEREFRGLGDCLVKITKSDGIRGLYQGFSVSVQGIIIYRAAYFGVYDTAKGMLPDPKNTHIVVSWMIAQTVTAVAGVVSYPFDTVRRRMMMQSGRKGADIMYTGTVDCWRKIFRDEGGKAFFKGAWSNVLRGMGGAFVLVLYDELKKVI

[10] = biological target: Serine/threonine-protein kinase 16 (Homo sapiens, UniProt O75716)
Sequence of Serine/threonine-protein kinase 16 (O75716 whole entry): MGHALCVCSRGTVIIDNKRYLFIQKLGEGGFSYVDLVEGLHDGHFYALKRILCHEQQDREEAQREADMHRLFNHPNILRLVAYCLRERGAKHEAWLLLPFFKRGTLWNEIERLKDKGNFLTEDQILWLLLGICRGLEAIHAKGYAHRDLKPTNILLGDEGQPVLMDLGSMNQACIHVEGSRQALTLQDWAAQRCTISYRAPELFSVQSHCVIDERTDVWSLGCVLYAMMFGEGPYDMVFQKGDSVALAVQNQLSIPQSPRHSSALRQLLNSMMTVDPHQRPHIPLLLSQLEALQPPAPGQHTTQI

| Kd [1] | Kd [2] | Kd [3] | Kd [4] | Kd [5] | Kd [6] | Kd [7] | Kd [8] | Kd [9] | Kd [10] | SMILES |
| --- | --- | --- | --- | --- | --- | --- | --- | --- | --- | --- |
| > 30 µM (inactive) | > 30 µM (inactive) | > 30 µM (inactive) | > 30 µM (inactive) | > 30 µM (inactive) | > 30 µM (inactive) | > 30 µM (inactive) | 0.81 µM (active) | > 30 µM (inactive) | > 30 µM (inactive) | C[C@@H]1COC(Nc2ccc3ncnc(Nc4ccc(OCc5nccs5)c(Cl)c4)c3c2)=N1 [VARLITINIB] |
| > 30 µM (inactive) | > 30 µM (inactive) | > 30 µM (inactive) | > 30 µM (inactive) | > 30 µM (inactive) | > 30 µM (inactive) | > 30 µM (inactive) | 2.63 µM (active) | > 30 µM (inactive) | > 30 µM (inactive) | C#Cc1cccc(Nc2ncnc3cc4c(cc23)OCCOCCOCCO4)c1 [ICOTINIB] |
| > 30 µM (inactive) | > 30 µM (inactive) | > 30 µM (inactive) | > 30 µM (inactive) | > 30 µM (inactive) | > 30 µM (inactive) | > 30 µM (inactive) | > 30 µM (inactive) | > 30 µM (inactive) | > 30 µM (inactive) | CNC(=O)c1cccc(-c2ccc3c(N4CCOC[C@@H]4C)nc(N4CCOC[C@@H]4C)nc3n2)c1 [VISTUSERTIB] |
| > 30 µM (inactive) | > 30 µM (inactive) | > 30 µM (inactive) | > 30 µM (inactive) | > 30 µM (inactive) | > 30 µM (inactive) | > 30 µM (inactive) | 0.39 µM (active) | > 30 µM (inactive) | > 30 µM (inactive) | COc1cc2ncnc3c2cc1OCCCCCN(C)Cc1ccc(Br)cc1N3 [JNJ-26483327] |
| > 30 µM (inactive) | > 30 µM (inactive) | > 30 µM (inactive) | > 30 µM (inactive) | > 30 µM (inactive) | > 30 µM (inactive) | > 30 µM (inactive) | > 30 µM (inactive) | > 30 µM (inactive) | > 30 µM (inactive) | Cn1c(=O)c(F)c(Nc2ccc(I)cc2F)c2c(=O)n(C[C@@H](O)CO)cnc21 [TAK-733] |

The remaining lines, values behind:

| SMILES | Kd [1] | Kd [2] | Kd [3] | Kd [4] | Kd [5] | Kd [6] | Kd [7] | Kd [8] | Kd [9] | Kd [10] |
| --- | --- | --- | --- | --- | --- | --- | --- | --- | --- | --- |
| CC(C)CC(=O)Nc1[nH]nc2c1CN(C(=O)C1CCN(C)CC1)C2(C)C [PHA-793887] | > 30 µM (inactive) | 3.58 µM (active) | > 30 µM (inactive) | > 30 µM (inactive) | > 30 µM (inactive) | > 30 µM (inactive) | > 30 µM (inactive) | > 30 µM (inactive) | > 30 µM (inactive) | > 30 µM (inactive) |
| CC[C@@](C)(Nc1ccnc(-c2c[nH]c3ncccc23)n1)C(=O)NCC(F)(F)F [DECERNOTINIB] | > 30 µM (inactive) | > 30 µM (inactive) | > 30 µM (inactive) | > 30 µM (inactive) | > 30 µM (inactive) | > 30 µM (inactive) | 0.067 µM (active) | > 30 µM (inactive) | > 30 µM (inactive) | > 30 µM (inactive) |
| CCc1cc2c(cc1N1CCC(N3CCOCC3)CC1)C(C)(C)c1[nH]c3cc(C#N)ccc3c1C2=O [ALECTINIB] | > 30 µM (inactive) | > 30 µM (inactive) | > 30 µM (inactive) | > 30 µM (inactive) | > 30 µM (inactive) | > 30 µM (inactive) | > 30 µM (inactive) | > 30 µM (inactive) | > 30 µM (inactive) | > 30 µM (inactive) |
| Cc1c(NC(=O)OC[C@@H]2COCCN2)cn2ncnc(Nc3ccc4c(cnn4Cc4cccc(F)c4)c3)c12 [AC-480] | > 30 µM (inactive) | > 30 µM (inactive) | > 30 µM (inactive) | > 30 µM (inactive) | > 30 µM (inactive) | > 30 µM (inactive) | > 30 µM (inactive) | > 30 µM (inactive) | > 30 µM (inactive) | > 30 µM (inactive) |
| COCCN1CCN(Cc2ccc(-c3n[nH]c4c3C(=O)c3c(NC(=O)NN5CCOCC5)cccc3-4)cc2)CC1 [RGB-286638] | > 30 µM (inactive) | 1.01 µM (active) | > 30 µM (inactive) | 1.9 µM (active) | > 30 µM (inactive) | > 30 µM (inactive) | > 30 µM (inactive) | > 30 µM (inactive) | > 30 µM (inactive) | 0.515 µM |
| COc1cc2ncnc(Nc3ccc(F)c(Cl)c3)c2cc1NC(=O)/C=C/CN1CCCCC1 [DACOMITINIB ANHYDROUS] | > 30 µM (inactive) | > 30 µM (inactive) | > 30 µM (inactive) | > 30 µM (inactive) | > 30 µM (inactive) | > 30 µM (inactive) | > 30 µM (inactive) | 0.988 µM (active) | > 30 µM (inactive) | > 30 µM (inactive) |
| Cc1c(Cn2c(C)nc3c(C(=O)O)cc(N4CCOCC4)cc32)cccc1C(F)(F)F [GSK-2636771] | > 30 µM (inactive) | > 30 µM (inactive) | > 30 µM (inactive) | > 30 µM (inactive) | > 30 µM (inactive) | > 30 µM (inactive) | > 30 µM (inactive) | > 30 µM (inactive) | > 30 µM (inactive) | > 30 µM (inactive) |
| COc1ccc2c(OCc3nnc4ccc(-c5ccccc5)nn34)ccnc2c1 [AMG-208] | > 30 µM (inactive) | > 30 µM (inactive) | > 30 µM (inactive) | > 30 µM (inactive) | > 30 µM (inactive) | > 30 µM (inactive) | > 30 µM (inactive) | > 30 µM (inactive) | > 30 µM (inactive) | > 30 µM (inactive) |
| COc1cc2nccc(Oc3ccc(NC(=O)C4(C(=O)Nc5ccc(F)cc5)CC4)cc3)c2cc1OC [CABOZANTINIB] | > 30 µM (inactive) | > 30 µM (inactive) | > 30 µM (inactive) | > 30 µM (inactive) | > 30 µM (inactive) | > 30 µM (inactive) | > 30 µM (inactive) | 0.767 µM (active) | > 30 µM (inactive) | > 30 µM (inactive) |
| C=CCN(/C=C1/C(=O)O[C@H](COC)[C@@]2(C)C1=C(O)C(=O)C1=C2[C@H](OC(C)=O)C[C@]2(C)C(=O)CC[C@@H]12)CC=C [SONOLISIB] | > 30 µM (inactive) | > 30 µM (inactive) | > 30 µM (inactive) | > 30 µM (inactive) | > 30 µM (inactive) | > 30 µM (inactive) | > 30 µM (inactive) | > 30 µM (inactive) | > 30 µM (inactive) | > 30 µM (inactive) |
